# Assay results from US7939057B2, “Methods and compositions for modulating the mobilization of stem cells” (Mount Sinai School of Medicine, priority 2006, dated 2011).
# Counter-ions that a name gives are not always drawn. Marks after values point to notes of the source that are not given here.
# Columns and labels:
# [1] = tested on: catecholaminergic neurons; assay: Tissue catecholamines after 6-hydroxydopamine treatment (HPLC, heart); type: in vivo, C57BL/6 mice; settings: 5 week-old C57BL6 mice treated perinatally with 6OHDA, n=3, p<0.05 vs PBS
# Description: (§1) Newborn C57BL/6 mice were injected s.c. with 6OHDA (100 mg/kg, Sigma) or vehicle (saline) on postnatal days 2, 4, 6, 8 and 9. HSPC mobilization was induced at 3 weeks of age. For SNS disruption in adult C57BL6 mice, 4 week-old animals were injected i.p. with 2 doses of 6OHDA or vehicle, 100 mg/kg on day 0, 250 mg/kg on day 2, and G-CSF treatment was begun on day 5. For β-adrenergic receptor blockade, 4 week-old C57BL/6 mice were treated with propranolol (0.5 g/L in drinking water, Sigma) or control pure water for 3 weeks prior to mobilization. For rescue experiments, clenbuterol (2 mg/kg/day, i.p.) was injected starting day −2 prior to and continued during G-CSF treatment.
# Hearts from 5 week-old C57BL6 mice treated perinatally with 6-hydroxydopamine (6OHDA) or PBS control were homogenized in 0.1 M trichloroacetic acid containing 10 mM sodium acetate, 0.1 mM EDTA, 1 μM isoproterenol (as internal standard), and 10.5% methanol (pH 3.8). Catecholamine levels were determined by HPLC at the Neurochemistry Core Lab, Vanderbilt University's Center for Molecular Neuroscience research (Nashville, Tenn.). * p<0.05 compared with PBS control. n=3 mice.
# [2] = tested on: hematopoietic stem and progenitor cells (HSPCs); assay: G-CSF-induced mobilization of hematopoietic progenitors (circulating CFU-C); type: in vivo, mice; settings: for G-CSF-induced mobilization with clenbuterol: clenbuterol 2 mg/kg/day i.p. two days before and during G-CSF
# Description: (§2) To induce HSPC mobilization, mice were injected with recombinant human G-CSF (Filgrastim, Amgen, Thousand Oaks, Calif., 250 μg/kg/day, every 12 hours, 8 divided doses, s.c.) in PBS supplemented with 0.1% endotoxin free bovine serum albumin (BSA) or fucoidan (Sigma; 2 doses of 100 mg/kg with 2 h interval, i.p.) in PBS. Blood was harvested 3 h (G-CSF) or 1 h (fucoidan). CFU-C assays were carried out as previously described (Katayama, Y., and Frenette, P. S. (2003). Galactocerebrosides are required postnatally for stromal-dependent bone marrow lymphopoiesis. Immunity 18, 789-800).
# A chronic guide cannula (1.0 mm) was implanted stereotaxically into the lateral ventricle (coordinates AP, −0.7 mm; DV, −2.4 mm; ML, 1.5 mm, from bregma). One week after implantation, mice received a reduced dose of G-CSF (25 μg/kg daily for 4 doses) either by ICV infusion (rate: 0.4 μL/min) or by s.c. injection.
# as §1
# hematopoietic progenitor = assay: AMD3100-induced hematopoietic progenitor mobilization (stem cell egress); type: in vivo, C57BL/6 mice
# Description: Studies were done to determine the effect of destruction of dopaminergic and noradrenergic neurons on stem cell egress. In these studies, newborn C57BL/6 mice were injected subcutaneously with 6OHDA (100 mg/kg, Sigma) or vehicle (normal saline) on postnatal days 2, 4, 6, 8, and 9. Hematopoietic progenitor mobilization was induced at 34 weeks of age, by subcutaneous injection of AMD3100 (5 mg/kg) in normal saline. Peripheral blood was harvested retroorbitally one hour post injection. P-value was calculated using two-tailed Student's t-test assuming unequal variances.
# Studies were done to determine the effect of the beta agonist clenbuterol on stem cell egress. In this study, all drugs were dissolved in normal saline (0.9% w/v NaCl), with a delivery volume of 10 μL/g body mass. 10 μl/g saline i.p. or 2 mg/kg clenbuterol i.p. were given to adult (8-10 week old) C57BL6 mice 1 hour prior to hematopoietic progenitor mobilization induced by […] s.c. Peripheral blood was harvested retroorbitally one hour post AMD3100 injection. P-value was calculated using two-tailed Student's t-test assuming unequal variances.
# circulating tumor cells = settings: AMD3100 5 mg/Kg, blood 1 h later; planned experiment
# Description: Luciferase expression will allow us to monitor distant metastases whereas GFP expression will permit to quantify the number of circulating tumor cells under baseline conditions and following treatment with stem cell “mobilizers”. Firstly, we will evaluate the effect of CXCR4 inhibition, using the specific antagonist AMD3100 on circulating tumor cells. Blood from NOD/SCID mice bearing tumors (day 35 for PC3lucGFP, day 15 for PC3MlucGFP) will be harvested at baseline to evaluate steady-state levels of circulating tumor cells. Mice will then be injected with AMD3100 at a dose of 5 mg/Kg and blood will be harvested 1 h later to evaluate the number of circulating tumor cells. […] To quantify the absolute counts of tumor cells, we will determine the number of circulating nucleated cells using an automatic cell counter (available in the PI's laboratory), and the proportion of GFP+ cells will be evaluated by flow cytometry in which a large sampling (>500,000 events) will be acquired owing to the rarity of circulating tumor cells.
# norepinephrine = assay: Norepinephrine turnover in hearts after AMPT; type: in vivo, mice; settings: AMPT 300 mg/kg, mean±sem, n=4-5
# Description: FIG. 11. Norepinephine turnover in tissues following G-CSF administration in Cgt littermates. • To assess turnover rate, Cgt were administered the catecholamine synthesis inhibitor α-methyl-p-tyrosine (AMPT, 300 mg/kg, Sigma) or were left untreated. Animals were sacrificed 4 h after AMPT injection. Hearts were rapidly removed, weighed, frozen in liquid nitrogen and stored at −80° C. for norepinephrine measurements. NE levels were determined by HPLC at the Neurochemistry Core Lab, Vanderbilt University's Center for Molecular Neuroscience Research (Nashville, Tenn.). Under steady-state conditions, the decline of norepinephrine (NE) reflects the synthesis rate and the sympathetic tone. n=4-5 mice per group; * p<0.05.
# Decline in tissue levels of norepinephrine obeys first order kinetics (Brodie, B. B., Costa, E., Dlabac, A., Neff, N. H., and Smookler, H. H. (1966). Application of steady state kinetics to the estimation of synthesis rate and turnover time of tissue catecholamines. J Pharmacol Exp Ther 154, 493-498): […]
# SDF-1 = SDF-1 secretion by stromal cell line MS-5 (ELISA); type: cell-based; settings: 72 h exposure of MS-5 cells
# Text: Studies were also done to determine the effect of norepinephrine or a beta receptor agonist on SDF-1 secretion by a stromal cell line and to determine if there is a correlation with stem cell egress. […] This corresponds with an increase in the stem cell egress.
# [3] = tested on: hematopoietic stem and progenitor cells (HSPCs); assay: Fucoidan-induced mobilization of hematopoietic progenitors (circulating CFU-C); type: in vivo; settings: Cgt−/− mice; 2 doses of 100 mg/kg i.p.
# Description: as §2
compound,measurement,setting,value
"NCCc1cc(O)c(O)cc1O [6OHDA, 6-hydroxydopamine]",Dopamine,[1],10 ± 10* pmol/mg tissue
same,Epinephrine,[1],41 ± 20* pmol/mg tissue
same,Norepinephrine,[1],49 ± 10* pmol/mg tissue
same,G-CSF-elicited mobilization,[2]; 6OHDA-treated adult C57BL/6 mice,significantly reduced
same,number of HSPCs mobilized by G-CSF,[2]; perinatally 6OHDA-lesioned mice vs vehicle littermates,dramatically reduced
same,baseline CFU-C counts per bone,"[2]; perinatally 6OHDA-treated mice, steady-state BM",did not alter
same,stem cell egress induced by AMD3100,"hematopoietic progenitor; C57BL/6 mice given 6OHDA 100 mg/kg s.c. postnatal days 2, 4, 6, 8, 9, AMD3100 5 mg/kg s.c. at 34 weeks of age, blood one hour post injection",decreased in a dose dependent manner
"c1cc(CN2CCCNCCNCCCNCC2)ccc1CN1CCCNCCNCCCNCC1 [AMD3100, 1,1′-[1,4-phenylene-bis(methylene)]-bis(1,4,8,11-tetra-azacyclotetradecane) octahydrochloride dehydrate]",number of circulating tumor cells,circulating tumor cells,will increase the number of circulating tumor cells
"CC(N)(Cc1ccc(O)cc1)C(=O)O (stereo not drawn) [AMPT, α-methyl-p-tyrosine]","Level after AMPT inhibition, 4 h (norepinephrine, heart)","norepinephrine; Cgt+/+, Cgt+/− mice",198 ± 38 pg/mg wet weight
same,"Level after AMPT inhibition, 4 h (norepinephrine, heart)",norepinephrine; Cgt−/− mice,335 ± 32 pg/mg wet weight
CC(C)NCC(O)c1ccc(O)c(O)c1 (stereo not drawn) [Isoproterenol],SDF-1 secretion,SDF-1,decreased in a dose-dependent manner
CC(C)(C)NCC(O)c1cc(Cl)c(N)c(Cl)c1 (stereo not drawn) [clenbuterol],G-CSF-induced mobilization with clenbuterol,[2]; Dbh+/− controls,further enhanced mobilization
same,G-CSF-induced mobilization with clenbuterol,[2]; Dbh−/− mice,rescued in part the mobilization defect
same,mobilization by clenbuterol by itself,"[2]; same dose schedule, no G-CSF, data not shown",did not trigger mobilization
same,stem cell egress induced by AMD3100 with clenbuterol,"hematopoietic progenitor; adult C57BL6 mice, clenbuterol 2 mg/kg i.p. 1 hour prior to AMD3100 s.c., blood one hour post AMD3100",boost stem cell egress in a dose dependent manner
NC[C@H](O)c1ccc(O)c(O)c1 [norepinephrine],SDF-1 secretion,SDF-1,decreased in a dose-dependent manner
"CC(C)NCC(O)COc1cccc2ccccc12 (stereo not drawn) [propranolol, 1-[(1-Methylethyl)amino]-3-(1-naphthalenyloxy)-2-propanol]",reduction of the number of HSPCs elicited by G-CSF,[2]; C57BL6 mice treated for three weeks with propranolol (0.5 g/L in drinking water),> 20%
fucoidan,CFU-C mobilization by fucoidan,[3],not mobilized
